Experimental data: patent US11629105B2, “Plant treatment composition” (Croda International Plc, priority 2016, dated 2023)
Where two headings read alike, the source gives them in different places. Each block holds one compound with its values, some of them ahead of it.

Legend:
[1] = Experimental: The solubility of other substituted ureas and substituted thioureas was tested in this solvent.
[2] = Stability of emulsion of urea derivative solution with ATLOX 4991; format: physicochemical
[3] = Solvent screening for ability to dissolve diphenyl urea (DPU); format: physicochemical; conditions: solubility of diphenyl urea (DPU) in the named solvent
[4] = Water solubility of solvents (OECD 105); format: physicochemical; conditions: solvent in water; for solubility: water, thermodynamic from solid
[5] = 2% w/w urea derivative in AGNIQUE AMD10

Fully Soluble in AGNIQUE AMD10? (2% w/w urea derivative) [1]: Yes | Emulsion with ATLOX 4991 stable? (4 wks ambient) [2]: Yes
SMILES: NC(=O)Nc1ccccc1 [N-phenyl urea]

Fully Soluble in AGNIQUE AMD10? (2% w/w urea derivative) [1]: Yes | Emulsion with ATLOX 4991 stable? (4 wks ambient) [2]: Yes
SMILES: CCCCNC(=S)NCCCC [N,N′-dibutylthiourea]

DPU Solubility comments [3]: Effectively insoluble
SMILES: CCCCOC(=O)CCCCC(=O)OCCCC [CETIOL ® B, Dibutyladipate]

solubility [4]: < 2000 µg/mL
SMILES: CCCCCCCCCCCCN1CCCC1=O [1-Dodecyl-2-pyrrolidone, 1-dodecyl-2-pyrrolidone]

Fully Soluble in AGNIQUE AMD10? (2% w/w urea derivative) [1, 5]: No
SMILES: O=C(NC1CCCCC1)NC1CCCCC1 [N,N′-dicyclohexyl urea]

SMILES: O=C(NCO)NCO [N,N′-bis(hydroxymethyl) urea]
Fully Soluble in AGNIQUE AMD10? (2% w/w urea derivative) [1]: No | solubility in AGNIQUE AMD10 [1]: < 2 % w/w

DPU Solubility comments [3]: Effectively insoluble
SMILES: CCCCOC(C)COC(C)COC(C)CO (stereo not drawn) [DOWANOL ™ TPnB, Tripropylene glycol n-Butyl ether]

Fully Soluble in AGNIQUE AMD10? (2% w/w urea derivative) [1]: Yes | Emulsion with ATLOX 4991 stable? (4 wks ambient) [2]: Yes
SMILES: CCNC(=O)NCC [1,3-diethylurea]

SMILES: CCN(C(=O)N(CC)c1ccccc1)c1ccccc1 [1,3-diethyl-1,3-diphenyl urea]
Fully Soluble in AGNIQUE AMD10? (2% w/w urea derivative) [1, 5]: Yes | Emulsion with ATLOX 4991 stable? (4 wks ambient) [2]: Yes

DPU Solubility comments [3]: Effectively insoluble
SMILES: CC(O)COc1ccccc1 (stereo not drawn) [DOWANOL ™ PPh, 1-phenoxypropan-2-ol]

Water solubility (OECD 105) [4]: 574 µg/mL | solubility [4]: < 1000 µg/mL
SMILES: CCCCCCCCCC(=O)N(C)C [AGNIQUE ® AMD10, Capric acid dimethylamide]

Fully Soluble in AGNIQUE AMD10? (2% w/w urea derivative) [1]: No | solubility in AGNIQUE AMD10 [1]: < 2 % w/w
SMILES: O=C1NCCCN1 [N,N′-trimethylene urea]

DPU Solubility comments [3]: Effectively insoluble
SMILES: CCCCCCCC(=O)OC [AGNIQUE ® ME890, Methyl octanoate]

solubility [4]: < 2000 µg/mL
SMILES: CCCCCCCCN1CCCC1=O [N-octylpyrrolidone]
